The text below walks through data of US7312248B2, “Control of parasites in animals by the use of novel trifluoromethanesulfonanilide oxime ether derivatives” (Schering-Plough Animal Health Corporation, priority 2004, dated 2007).

One may read the mortality as the percentage killed.

Holding throughout (assay type): in vivo
Data set [1] concerns cat flea (Ctenocephalides felis). The experiment in a line: Ctenocephalides felis adulticide assay: dose response (LC50). In short, it runs like this:
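Groups of 15 adult cat fleas, 3–7 days post-emergence, were exposed for 24 h at 25° C and 75% humidity to glass flask bases coated with six serial doses in acetone and dried for 24 h. Mortality was scored at 8 and 24 h, and LC50 was the surface-treatment concentration killing 50%.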

The test system of data set [2] is Brown Dog Tick (Rhipicephalus sanguineus). The experiment in a line: Dose response protocol for topical application on brown dog ticks (LD50). The conditions noted are these: 24 h mortality. How it is done:
e) Dose response protocol for topical application on brown dog ticks (Rhipicephalus sanguineus): The test determines the level of insecticidal activity of sample compounds or formulations when applied topically on brown dog ticks. Sample compounds were stored prior to use in a freezer (−5±1° C.), unless otherwise specified.
• Mortality: A tick is defined as dead after it gives no apparent response when touched lightly or gently breathed upon, while observed for 30 seconds. • LD50 (Lethal Dose 50): The dose of a topically applied treatment at which 50% of the dog ticks are killed. • Reference compound: To assess an experimental compound for significant acaricidal activity a single dose level is chosen, which is based upon known results from previous experiments using a commercially available active i.e., a reference compound. The reference compound selected is one in common use, and one that has a similar mode of action against the Brown Dog Tick (i.e., the test species). • Recovery container: A recovery container consists of a 500 ml round plastic container measuring 115 mm diameter and 70 mm height, with a tight fitting lid that has 10 small (˜1 mm) holes inserted for air exchange. A 90 mm diameter piece of filter paper was placed on the bottom of the container and moistened with 1 mL of de-stilled water.
Adult, mixed sex, Brown Dog Ticks (Rhipicephalus sanguineus) were reared as follows: (i) cultured, (ii) transferred unfed, to a testing laboratory, and (iii) then maintained under controlled conditions (i.e., temp. 18°±2° C., humidity 75±5% RH). The ticks used were selected for vigor prior to testing, i.e., capable of actively walking and responsive to being touched or gently breathed upon.
During the testing, the temperature was maintained at 25±1° C., and the humidity was ambient. Seven dose levels (concentrations) of sample compound, in the form of serial dilutions in acetone, were derived from a pilot study and covered a range that produced very low to very high mortality. Groups of ten ticks were treated topically (on the abdomen) with 1 μL of a single dose level of the sample compound. Each test was replicated four times, i.e., employing a total of 40 ticks per dose level of each sample compound. As a control, ten ticks were treated with solvent only (acetone) for each test. Following the treatment, the ticks were held in recovery containers maintained under appropriate rearing conditions for 24 hours. Mortality resulting from the treatments was recorded at 24 hours. […] Press, London (1971).]

For data set [3] the test system is unchanged. Description: Rapid screening protocol for topical application on brown dog ticks. The settings on record: 48 h; Laboratory 2 F data.
The subject of data set [4] is cat flea (Ctenocephalides felis). Description: whole plant or invertebrate. The settings on record: Ctenocephalides felis. In short, it runs like this: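 Single-dose screen at 1.26 μg/cm^2: acetone solution dried for 24 h on a Coatasil-treated 159 mm^2 flask base, then 15 adult cat fleas aged 3-7 days per flask, four or more replicates, acetone control. Percent dead, meaning not moving or unable to right themselves, recorded after 8, 24 and/or 48 h at 25 °C and 75% RH.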

Another data set relates to Haemonchus contortus. Description: Haemonchus contortus larvacidal (larval development) assay. The conditions noted are these: 144 h, read-out: Haemonchus contortus LD99. In short, it runs like this:
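Nematode eggs placed on agar containing compound (12 two-fold dilutions, final 0.024–50 μg/ml) and left 6 days to develop to L3. LD99 is the lowest concentration inhibiting development of 99% of larvae, derived from well titre (2^n−1) and top concentration.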

[5] abbreviates: 8 h, read-out: C. felis Mortality (%) 8 h, 8 h, Laboratory 2 B data.
[6] abbreviates: 24 h, read-out: C. felis Mortality (%) 24 h, 24 h, Laboratory 2 B data.

Molecules are shown by their SMILES. Where two headings read alike, the source gives them in different places.

Take `CC/C(=N\Oc1ccc(F)cc1)c1cc(Cl)ccc1NS(=O)(=O)C(F)(F)F` [Compound 130, N-{4-chloro-2-[1-(4-fluorophenoxyimino)propyl]phenyl}trifluoromethanesulfonamide]: the “C. felis LC50” value in data set [1] (Laboratory 1 C data) stood at 0.2 μg/cm^2; in data set [1] (Laboratory 2 D data) it was 0.03 μg/cm^2. Moreover, the “R. sanguineus LD50” value in data set [2] is recorded as 1.5 μg/tick. Further, the “R. sanguineus Mortality (%) 48 h” value in data set [3] was determined as 100%. Further, the mortality at 1.26 µg/cm2, 1.26 µg/cm2 in data set [4] (24 h, read-out: C. felis Mortality (%) 24 h, 24 h, Laboratory 1 A data) was 100%. In addition, the IC99 in the data set with Haemonchus contortus is 1.5 µg/mL.

As for `C/C(=N\OCC1CC1)c1cc(Cl)ccc1NS(=O)(=O)C(F)(F)F` [Compound 187, N-[4-chloro-2-(1-cyclopropylmethoxyiminoethyl)phenyl]trifluoromethanesulfonamide], the “C. felis LC50” value in data set [1] (Laboratory 1 C data) is listed as 0.1 μg/cm^2; in data set [1] (Laboratory 2 D data), 0.005 μg/cm^2. For the same compound, the “R. sanguineus LD50” value in data set [2] is recorded as 1.0 μg/tick. The “R. sanguineus Mortality (%) 48 h” value in data set [3] is 100%. Further, the mortality at 1.26 µg/cm2, 1.26 µg/cm2 in data set [4] (setting [5]) and in data set [4] (setting [6]) was 100% in each case.

Regarding `C/C(=N\OCC1CCCC1)c1cc(Cl)ccc1NS(=O)(=O)C(F)(F)F` [Compound 189], the “C. felis LC50” value in data set [1] (Laboratory 2 D data) is given as 0.01^D μg/cm^2. Further, the “R. sanguineus LD50” value in data set [2] worked out at 2.2 μg/tick. Further, the “R. sanguineus Mortality (%) 48 h” value in data set [3] came out at 100%. Moreover, the mortality at 1.26 µg/cm2, 1.26 µg/cm2 in data set [4] (setting [5]) was determined as 91%; in data set [4] (setting [6]), 97%.

Regarding `CCC/C(=N\OCC)c1cc(Cl)ccc1NS(=O)(=O)C(F)(F)F` [Compound 193, N-[4-chloro-2-(1-ethoxyiminobutyl)phenyl]trifluoromethanesulfonamide], in data set [1] (Laboratory 2 D data), the “C. felis LC50” value is given as 0.01^D μg/cm^2. Also, the “R. sanguineus LD50” value in data set [2] is on record as 1.2 μg/tick. The “R. sanguineus Mortality (%) 48 h” value in data set [3] is given as 95%. Also, the mortality at 1.26 µg/cm2, 1.26 µg/cm2 in data set [4] (setting [5]) is 88%; in data set [4] (setting [6]), 100%.

For the compound `C/C(=N\OCc1ccc(Cl)s1)c1cc(Cl)ccc1NS(=O)(=O)C(F)(F)F` [Compound 194, N-{4-chloro-2-[1-(5-chlorothiophen-2-ylmethoxyimino)ethyl]phenyl}trifluoromethanesulfonamide], the “C. felis LC50” value in data set [1] (Laboratory 2 D data) was 0.02^D μg/cm^2. Also, the “R. sanguineus LD50” value in data set [2] came to 2.0 μg/tick. Moreover, in data set [3], the “R. sanguineus Mortality (%) 48 h” value worked out at 100%. For the same compound, the mortality at 1.26 µg/cm2, 1.26 µg/cm2 in data set [4] (setting [5]) and in data set [4] (setting [6]) was 100% in each case.

In the case of `CC/C(=N\OCC1CC1)c1cc(Cl)ccc1NS(=O)(=O)C(F)(F)F` [Compound 196, N-[4-chloro-2-(1-cyclopropylmethoxyiminopropyl)phenyl]trifluoromethanesulfonamide], the “C. felis LC50” value in data set [1] (Laboratory 2 D data) is on record as 0.008^D μg/cm^2. Moreover, the “R. sanguineus LD50” value in data set [2] was 1.2 μg/tick. Further, in data set [3], the “R. sanguineus Mortality (%) 48 h” value is recorded as 100%. In addition, the values for the mortality at 1.26 µg/cm2, 1.26 µg/cm2 in data set [4] (setting [5]) and in data set [4] (setting [6]) were 96% and 100%, respectively.

As for `C#CCO/N=C(\C)c1cc(Cl)ccc1NS(=O)(=O)C(F)(F)F` [Compound 202], the “C. felis LC50” value in data set [1] (Laboratory 2 D data) is recorded as 0.01^D μg/cm^2. Besides, the “R. sanguineus LD50” value in data set [2] is recorded as 0.9 μg/tick. Besides, the “R. sanguineus Mortality (%) 48 h” value in data set [3] was found to be 100%. Also, the mortality at 1.26 µg/cm2, 1.26 µg/cm2 in data set [4] (setting [5]) and in data set [4] (setting [6]) was 100% each time.

On to `CC/C(=N\OCC1CCCO1)c1cc(Cl)ccc1NS(=O)(=O)C(F)(F)F` (stereo not shown) [Compound 205], for which, in data set [1] (Laboratory 2 D data), the “C. felis LC50” value is 0.02^D μg/cm^2. The “R. sanguineus LD50” value in data set [2] was found to be 3.1 μg/tick. Further, the “R. sanguineus Mortality (%) 48 h” value in data set [3] came to 100%. In addition, the mortality at 1.26 µg/cm2, 1.26 µg/cm2 in data set [4] (setting [5]) turned out to be 97%; in data set [4] (setting [6]), 98%.

With `CC/C(=N\OCc1cccs1)c1cc(Cl)ccc1NS(=O)(=O)C(F)(F)F` [Compound 207, N-{4-chloro-2-[1-(thiophen-2-ylmethoxyimino)propyl]phenyl}trifluoromethanesulfonamide], in data set [1] (Laboratory 2 D data), the “C. felis LC50” value is recorded as 0.007^D μg/cm^2. Moreover, the “R. sanguineus LD50” value in data set [2] is 2.5 μg/tick. Besides, the “R. sanguineus Mortality (%) 48 h” value in data set [3] is 100%. Moreover, the mortality at 1.26 µg/cm2, 1.26 µg/cm2 in data set [4] (setting [5]) amounted to 98%; in data set [4] (setting [6]) it was 100%.

As for `C#CCO/N=C(\CC)c1cc(Cl)ccc1NS(=O)(=O)C(F)(F)F` [Compound 208], the “C. felis LC50” value in data set [1] (Laboratory 2 D data) was 0.02^D μg/cm^2. Further, in data set [2], the “R. sanguineus LD50” value turned out to be 0.8 μg/tick. Moreover, the “R. sanguineus Mortality (%) 48 h” value in data set [3] was found to be 100%. Further, the mortality at 1.26 µg/cm2, 1.26 µg/cm2 in data set [4] (setting [5]) and in data set [4] (setting [6]) was 100% in each case.

For the compound `CC(C)/C(=N\Oc1ccc(Cl)cc1)c1cc(Cl)ccc1NS(=O)(=O)C(F)(F)F` [Compound 215, N-{4-chloro-2-[1-(4-chlorophenoxyimino)-2-methylpropyl]phenyl}trifluoromethanesulfonamide], the “C. felis LC50” value in data set [1] (Laboratory 2 D data) is reported as 0.07^D μg/cm^2. Also, the “R. sanguineus LD50” value in data set [2] was 1.7 μg/tick. For the same compound, the “R. sanguineus Mortality (%) 48 h” value in data set [3] was 87%. Moreover, the results for the mortality at 1.26 µg/cm2, 1.26 µg/cm2 in data set [4] (setting [5]) and in data set [4] (setting [6]) were 82% and 100%, respectively.

Regarding `C/C(=N\OC(C)(C)C)c1cc(Cl)ccc1NS(=O)(=O)C(F)(F)F` [Compound 223], in data set [1] (Laboratory 2 D data), the “C. felis LC50” value is reported as 0.04^D μg/cm^2. For the same compound, the “R. sanguineus LD50” value in data set [2] amounted to 1.4 μg/tick. Also, in data set [3], the “R. sanguineus Mortality (%) 48 h” value was determined as 97%. Also, the figures for the mortality at 1.26 µg/cm2, 1.26 µg/cm2 in data set [4] (setting [5]) and in data set [4] (setting [6]) were 92% and 100%, respectively.

Regarding `CC/C(=N\OC(C)(C)C)c1cc(Cl)ccc1NS(=O)(=O)C(F)(F)F` [Compound 224], the “C. felis LC50” value in data set [1] (Laboratory 2 D data) is 0.04^D μg/cm^2. For the same compound, the “R. sanguineus LD50” value in data set [2] was 1.5 μg/tick. Besides, the “R. sanguineus Mortality (%) 48 h” value in data set [3] is 95%. For the same compound, the mortality at 1.26 µg/cm2, 1.26 µg/cm2 in data set [4] (setting [5]) stood at 83%; in data set [4] (setting [6]), 100%.
